Source: patent US20250129103A1, “METHODS FOR TREATMENT OF CANCER” (Frontier Medicines Corporation, priority 2022, published 2025)
Values after ≈ are worked out from the molar mass of the structure shown.

What was measured:
[1] = molecular target: KRAS G12C (GMPPNP-loaded) and cRAF (Ras-binding domain) interaction (Homo sapiens (Human), UniProt P01116, C118S/C51S/C80L/G12C); assay: Inhibition of KRAS G12C and cRAF binding (AlphaScreen); details: KRAS G12C loaded with GMPPNP, cRaf RBD, 2 hours preincubation; read-out: Raf-1 RBD K-Ras IC50
Summary of the method: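 AlphaScreen readout (680 nm excitation, 570 nm emission) of RBD binding after a 60-90 min bead step at room temperature. This step follows 2 h compound exposure of GMPPNP-preloaded KRAS G12C in Hepes pH 7.4 buffer with MgCl2 and 10 μM GMPPNP.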

[2] = Determination of kinetic solubility (pH 7.4); type: physicochemical; details: for solubility kinetic at 2 h: phosphate buffer, pH 7.4, aqueous buffer, kinetic from dmso stock, 50 mM phosphate buffer pH 7.4, read-out: Ksol, pH 7.4
Description: 490 μL of a 50 mM phosphate buffer (pH 7.4) was added to the sample solution. The mixture was vortexed for at least 2 minutes. The vial was shaken on a Barnstead shaker at 800 rpm at room temperature for 2 hours. The vial was centrifuged at 4000 rpm for 20 minutes. The Mini-UniPrep vial was compressed to prepare a filtrate, which was injected into an HPLC-UV and LC-MS/MS system. Kinetic solubility was calculated by referencing sample peak areas to a standard calibration curve.

[3] = Determination of logD (1-octanol / phosphate buffer pH 7.4); type: physicochemical; details: for logD: 1-octanol/phosphate buffer, pH 7.4, pH 7.4, 1-octanol/phosphate buffer, read-out: Log D, pH 7.4
Description: Preparation of phosphate buffer saturated with 1-octanol: 10 mL of 100 mM phosphate buffer (pH 7.4) was added to 100 mL of 1-octanol. The mixture was shaken vigorously and left to stand at room temperature overnight.
Preparation of 1-octanol saturated with phosphate buffer: 10 mL of 1-octanol was added to 100 mL of 100 mM phosphate buffer (pH 7.4). The mixture was shaken vigorously and left to stand at room temperature overnight.
149 μL of phosphate buffer saturated with 1-octanol was added into 1st sample tube. 149 μL of 1-octanol saturated with phosphate buffer was added into the 2nd sample tube. The sample tubes were mixed vigorously and shaken for 1 hour at a speed of 800 rpm at room temperature. The sample tubes were subjected to centrifugation at 4000 rpm for 5 minutes at room temperature. Samples of the supernatant were taken from both tubes, diluted with an appropriate LCMS buffer, and analyzed on an LCMS instrument. LogD was calculated according to the following equation.

Chain of KRAS G12C (GMPPNP-loaded) and cRAF (Ras-binding domain) interaction (P01116 other isoform, or with tags, fused parts or gaps G12C/C51S/C80L/C118S): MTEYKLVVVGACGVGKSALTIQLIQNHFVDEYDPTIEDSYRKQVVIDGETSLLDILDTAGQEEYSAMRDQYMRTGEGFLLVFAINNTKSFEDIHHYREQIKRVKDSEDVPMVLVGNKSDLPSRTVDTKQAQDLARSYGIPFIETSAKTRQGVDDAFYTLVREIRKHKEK

Structure (SMILES) | IC50 [1] [nM] | solubility kinetic at 2 h [2] [µg/mL] | logD [3] | Ksol, pH 7.4 (ug/mL) ([2]; 50 mM phosphate buffer pH 7.4) | Log D, pH 7.4 ([3]; pH 7.4, 1-octanol/phosphate buffer)
N#CC[C@H]1CN(c2nc(OC[C@@]34CCCN3C[C@H](F)C4)nc3c(F)c(-c4cccc5cccc(Cl)c45)ncc23)CCN1C(=O)/C=C/CN1CC2CCC1CO2 (stereo partly drawn) [Compound 108, 2-((2S)-1-((E)-4-(2-oxa-5-azabicyclo[2.2.2]octan-5-yl)but-2-enoyl)-4-(7-(8-chloronaphthalen-1-yl)-8-fluoro-2-(((2R,7aS)-2-fluorohexahydro-1H-pyrrolizin-7a-yl)methoxy)pyrido[4,3-d]pyrimidin-4-yl)piperazin-2-yl)acetonitrile] | < 10 | 88 (≈ 114 µM) | 3 | – | –
C[C@@H]1CN(C/C=C/C(=O)N2CCN(c3nc(OC[C@@]45CCCN4C[C@H](F)C5)nc4c(F)c(-c5cccc(Cl)c5C(F)(F)F)ncc34)C[C@@H]2CC#N)C[C@@H](C)O1 [Compound 307] | < 10 | 124 (≈ 157 µM) | 3.68 | – | –
N#CC[C@H]1CN(c2nc(OCC34CCCN3CCC4)nc3c(F)c(-c4cccc5ccc(F)c(Cl)c45)ncc23)CCN1C(=O)/C=C/CN1C[C@H]2C[C@@H]1CO2 [Compound 183] | < 10 | 110 (≈ 146 µM) | 1.48 | – | –
CN(C)C/C=C/C(=O)N1CCN(c2nc(OC[C@@]34CCCN3C[C@H](F)C4)nc3c(F)c(-c4cccc(Cl)c4C4CC4)ncc23)C[C@@H]1CC#N [Compound 115, 2-((S)-4-(7-(3-chloro-2-cyclopropylphenyl)-8-fluoro-2-(((2R,7aS)-2-fluorotetrahydro-1H-pyrrolizin-7a(5H)-yl)methoxy)pyrido[4,3-d]pyrimidin-4-yl)-1-((E)-4-(dimethylamino)but-2-enoyl)piperazin-2-yl)acetonitrile] | 10 to 100 | 114 (≈ 165 µM) | 2.54 | – | –
CC1(c2noc(/C=C/C(=O)N3CCN(c4nc(OC[C@@]56CCCN5C[C@H](F)C6)nc5c(F)c(-c6cccc7cccc(Cl)c67)ncc45)C[C@@H]3CC#N)n2)CC1 [Compound 47] | 100 to 500 | 0.01 (≈ 0.0131 µM) | 4.59 | – | –
N#CC[C@H]1CN(c2nc(OCC34CCCN3CCC4)nc3c(F)c(-c4cccc5cccc(Cl)c45)ncc23)CCN1C(=O)/C=C/c1nc(C2CC2)no1 [Compound 24] | 100 to 500 | 38.5 (≈ 52.4 µM) | 2.71 | – | –
Cc1nnc(/C=C/C(=O)N2CCN(c3nc(OCC45CCCN4CCC5)nc4c3CCN(c3cccc5cccc(Cl)c35)C4)C[C@@H]2CC#N)[nH]1 [Compound 29] | > 500 | 74.7 (≈ 108 µM) | 2.84 | – | –
Cc1noc(/C=C/C(=O)N2CCN(c3nc(OCC45CCCN4CCC5)nc4c3CCN(c3cccc5cccc(Cl)c35)C4)C[C@@H]2CC#N)n1 [Compound 28] | 100 to 500 | – | – | 43.66 | 3.22
N#CC[C@H]1CN(c2nc(OC[C@@]34CCCN3C[C@H](F)C4)nc3c(F)c(-c4cccc(Cl)c4C(F)(F)F)ncc23)CCN1C(=O)/C=C/CN1CC2CC(C1)O2 [Compound 295] | < 10 | 102 (≈ 132 µM) | 2.75 | – | –
N#CC[C@H]1CN(c2nc(OCC34CCCN3CCC4)nc3c2CCN(c2cccc4cccc(Cl)c24)C3)CCN1C(=O)/C=C/c1nc([C@H]2C[C@@H]2F)no1 [Compound 36] | 10 to 100 | 2.62 (≈ 3.55 µM) | 3.98 | – | –
C[C@H]1CN(C/C=C/C(=O)N2CCN(c3nc(OC[C@@]45CCCN4C[C@H](F)C5)nc4c(F)c(-c5cccc(Cl)c5C5CC5)ncc34)C[C@@H]2CC#N)C[C@H](C)O1 [Compound 302] | < 10 | 118 (≈ 155 µM) | 4.21 | – | –
N#CC[C@H]1CN(c2nc(OC[C@@]34CCCN3C[C@H](F)C4)nc3c(F)c(-c4cccc5cccc(Cl)c45)ncc23)CCN1C(=O)/C=C/CN1CCN(C2COC2)CC1 [Compound 325] | < 10 | 115 (≈ 144 µM) | 2.5 | – | –
Cc1nsc(/C=C/C(=O)N2CCN(c3nc(OC[C@@]45CCCN4C[C@H](F)C5)nc4c3C[C@H](C)[C@@H](c3nc(N)cc(C)c3C(F)(F)F)C4)C[C@@H]2CC#N)n1 [Compound 203] | 10 to 100 | 0.01 (≈ 0.0132 µM) | 4.59 | – | –
Cc1nsc(/C=C/C(=O)N2CCN(c3nc(OC[C@@]45CCCN4C[C@H](F)C5)nc4c(F)c(-c5nc(N)cc(C)c5C(F)(F)F)ncc34)C[C@@H]2CC#N)n1 [Compound 142] | < 10 | 106 (≈ 140 µM) | 2.55 | – | –
N#CC[C@H]1CN(c2nc(OC[C@@]34CCCN3C[C@H](F)C4)nc3c(F)c(-c4ccccc4C(F)F)ncc23)CCN1C(=O)/C=C/CN1[C@@H]2CC[C@H]1COC2 [Compound 289] | 10 to 100 | 140 (≈ 190 µM) | 2.16 | – | –
N#CC[C@H]1CN(c2nc(OC[C@@]34CCCN3C[C@H](F)C4)nc3c(F)c(-c4cccc(Cl)c4C4CC4)ncc23)CCN1C(=O)/C=C/CN1CCCOCC1 [Compound 112, 2-((S)-1-((E)-4-(1,4-oxazepan-4-yl)but-2-enoyl)-4-(7-(3-chloro-2-cyclopropylphenyl)-8-fluoro-2-(((2R,7aS)-2-fluorotetrahydro-1H-pyrrolizin-7a(5H)-yl)methoxy)pyrido[4,3-d]pyrimidin-4-yl)piperazin-2-yl)acetonitrile] | < 10 | 52.4 (≈ 70.1 µM) | 3.28 | – | –
N#CC[C@H]1CN(c2nc(OC[C@@]34CCCN3C[C@H](F)C4)nc3c(F)c(-c4cccc5cccc(Cl)c45)ncc23)CCN1C(=O)/C=C/CN1CCS(=O)(=O)CC1 [Compound 207] | 100 to 500 | 29.9 (≈ 37.8 µM) | 2.4 | – | –
Cn1cnc(/C=C/C(=O)N2CCN(c3nc(OCC45CCCN4CCC5)nc4c3CCN(c3cccc5cccc(Cl)c35)C4)C[C@@H]2CC#N)c1 [Compound 22] | > 500 | 77.7 (≈ 112 µM) | 2.92 | – | –
Cc1c(F)ccc2cccc(-c3ncc4c(N5CCN(C(=O)/C=C/CN6CCOCC6)[C@@H](CC#N)C5)nc(OC[C@@]56CCCN5C[C@H](F)C6)nc4c3F)c12 [Compound 246] | 10 to 100 | 69.5 (≈ 93.9 µM) | 2.96 | – | –
N#CC[C@H]1CN(c2nc(OC[C@@]34CCCN3C[C@H](F)C4)nc3c2CCN(c2cccc4cccc(Cl)c24)C3)CCN1C(=O)/C=C/c1nc([C@H]2C[C@@H]2F)no1 [Compound 37] | 10 to 100 | 0.01 (≈ 0.0132 µM) | 4.85 | – | –
C[C@@H]1CN(C/C=C/C(=O)N2CCN(c3nc(OC[C@@]45CCCN4C[C@H](F)C5)nc4c(F)c(-c5cccc(Cl)c5C5CC5)ncc34)C[C@@H]2CC#N)C[C@H](C)O1 [Compound 300] | 10 to 100 | 124 (≈ 164 µM) | 4.05 | – | –
Cc1ncc(F)c(/C=C/C(=O)N2CCN(c3nc(OC[C@@]45CCCN4C[C@H](F)C5)nc4c(F)c(-c5cccc6cccc(Cl)c56)ncc34)C[C@@H]2CC#N)n1 [Compound 157] | 10 to 100 | 0.55 (≈ 0.729 µM) | 4.05 | – | –
N#CC[C@H]1CN(c2nc(OCC34CCCN3CCC4)nc3c2CCN(c2cccc4cccc(Cl)c24)C3)CCN1C(=O)/C=C/CN1CC(F)C1 [Compound 201] | 10 to 100 | 119 (≈ 171 µM) | 2.76 | – | –
N#CC[C@H]1CN(c2nc(OC[C@@]34CCCN3C[C@H](F)C4)nc3c(F)c(-c4cccc5cccc(Cl)c45)ncc23)CCN1C(=O)/C=C/c1nc([C@H]2C[C@@H]2F)no1 [Compound 15, 2-((S)-4-(7-(8-chloronaphthalen-1-yl)-8-fluoro-2-(((2R,7aS)-2-fluorotetrahydro-1H-pyrrolizin-7a(5H)-yl)methoxy)pyrido[4,3-d]pyrimidin-4-yl)-1-((E)-3-(3-((1R,2S)-2-fluorocyclopropyl)-1,2,4-oxadiazol-5-yl)acryloyl)piperazin-2-yl)acetonitrile] | 100 to 500 | 0.01 (≈ 0.013 µM) | 4.24 | – | –
N#CC[C@H]1CN(c2nc(OC[C@@]34CCCN3C[C@H](F)C4)nc3c(F)c(-c4cccc(Cl)c4C4CC4)ncc23)CCN1C(=O)/C=C/CN1C[C@H]2C[C@@H]1CO2 [Compound 276] | < 10 | 108 (≈ 145 µM) | 3 | – | –
C[C@@H]1CN(C/C=C/C(=O)N2CCN(c3nc(OC[C@@]45CCCN4C[C@H](F)C5)nc4c(F)c(-c5cccc6cccc(F)c56)ncc34)C[C@@H]2CC#N)C[C@@H](C)O1 [Compound 236] | 100 to 500 | 88 (≈ 117 µM) | 3.59 | – | –
Cc1cc(/C=C/C(=O)N2CCN(c3nc(OC[C@@]45CCCN4C[C@H](F)C5)nc4c(F)c(-c5cccc(Cl)c5C(F)(F)F)ncc34)C[C@@H]2CC#N)nc(C)n1 [Compound 297] | 10 to 100 | 29.7 (≈ 38.6 µM) | 3.89 | – | –
